From patent US20260373156A1, “CANCER TREATMENTS USING MTA-COOPERATIVE PRMT5 INHIBITORS” (AMGEN INC., priority 2022, published 2026)

Experiments:
[1] = test system: MIAPACA2T2 cells; test: CellTiter-Glo viability and CalcuSyn synergy, PRMT5 inhibitor + trametinib, 6 days; conditions: for Combination Fa: 8640 min
[2] = test system: PSN1 cells; test: CellTiter-Glo viability and CalcuSyn synergy, PRMT5 inhibitor + KIF18A, 6 days; conditions: for Combination Fa: 8640 min
[3] = test system: MIAPACA2T2 cells; test: as above; conditions: for Combination Fa: 8640 min
[4] = test system: HCC1395 cells; test: CellTiter-Glo viability and CalcuSyn synergy, PRMT5 inhibitor + olaparib, 6 days; conditions: for Combination Fa: 8640 min
[5] = test system: MIAPACA2 cells; test: CellTiter-Glo cell viability, PRMT5 inhibitor + sotorasib, 6 days; assay type: cell-based; conditions: Compound B + sotorasib
Experimental: Cell viability was measured by the CellTiter-Glo Luminescence assay after 6 days. […] To assess cell growth after combination treatment, nuclear counts were performed on the IncuCyte live cell imager over 8 days.

[6] = test system: A549 cells; test: CellTiter-Glo viability and CalcuSyn synergy, PRMT5 inhibitor + trametinib, 6 days; conditions: for Combination Fa: 8640 min
[7] = test system: MIAPACA2T2 cells; test: CellTiter-Glo viability and CalcuSyn synergy, PRMT5 inhibitor + sotorasib, 6 days; conditions: for Combination Fa: 8640 min
[8] = test system: LU99 cells; test: as above; conditions: for Combination Fa: 8640 min
[9] = test system: LU5268 NSCLC xenografts; test: Tumor growth inhibition, LU5268 NSCLC xenografts (Example 13); assay type: in vivo, Female NOD/SCID mice; conditions: Compound B 100 mg/kg orally once daily + sotorasib 100 mg/kg; versus either single agent alone
Excerpt: 10 Female NOD/SCID mice were implanted with LU5268 NSCLC tumor xenografts. Mean tumor volumes for each grouping were between 100-200 mm^3. […] Plotted data represents the TGI (tumor growth inhibition), n=10 for each group.

[10] = test system: A549 cells; test: CellTiter-Glo viability and CalcuSyn synergy, PRMT5 inhibitor + KRAS G12X inhibitor, 6 days; conditions: for Combination Fa: 8640 min
[11] = Compound B 0.437381 μM + trametinib 0.00101 μM
[12] = Compound B 0.437381 μM + trametinib 0.001918 μM
[13] = Compound B 0.437381 μM + trametinib 0.003645 μM
[14] = Compound B 0.437381 μM + trametinib 0.00531 μM
[15] = Compound B 0.437381 μM + trametinib 0.006925 μM
[16] = Compound B 0.437381 μM + trametinib 0.013158 μM
[17] = Compound B 0.437381 μM + trametinib 0.025 μM
[18] = Compound B 0.0384 μM + KIF18A 0.003951 μM
[19] = Compound B 0.0384 μM + KIF18A 0.005926 μM
[20] = Compound B 0.0384 μM + KIF18A 0.008889 μM
[21] = Compound B 0.0384 μM + KIF18A 0.013333 μM
[22] = Compound B 0.0384 μM + KIF18A 0.02 μM
[23] = Compound B 0.0384 μM + KIF18A 0.03 μM
[24] = Compound B 0.0384 μM + KIF18A 0.045 μM
[25] = Compound B 0.2302 μM + KIF18A 0.021256 μM
[26] = Compound B 0.2302 μM + KIF18A 0.040386 μM
[27] = Compound B 0.2302 μM + KIF18A 0.076734 μM
[28] = Compound B 0.2302 μM + KIF18A 0.145794 μM
[29] = Compound B 0.2302 μM + KIF18A 0.277008 μM
[30] = Compound B 0.2302 μM + KIF18A 0.526316 μM
[31] = Compound B 0.2302 μM + KIF18A 1 μM
[32] = Compound B 1.4579 μM + olaparib 0.103573 μM
[33] = Compound B 1.4579 μM + olaparib 0.176074 μM
[34] = Compound B 1.4579 μM + olaparib 0.299326 μM
[35] = Compound B 1.4579 μM + olaparib 0.508854 μM
[36] = Compound B 1.4579 μM + olaparib 0.865052 μM
[37] = Compound B 1.4579 μM + olaparib 1.47059 μM
[38] = Compound B 1.4579 μM + olaparib 2.5 μM
[39] = Compound B 0.0425 μM + trametinib 0.000213 μM
[40] = Compound B 0.0425 μM + trametinib 0.000404 μM
[41] = Compound B 0.0425 μM + trametinib 0.000767 μM
[42] = Compound B 0.0425 μM + trametinib 0.001458 μM
[43] = Compound B 0.0425 μM + trametinib 0.00277 μM
[44] = Compound B 0.0425 μM + trametinib 0.005263 μM
[45] = Compound B 0.0425 μM + trametinib 0.01 μM
[46] = Compound B 0.4374 μM + sotorasib 0.00596 μM
[47] = Compound B 0.4374 μM + sotorasib 0.009537 μM
[48] = Compound B 0.4374 μM + sotorasib 0.015259 μM
[49] = Compound B 0.4374 μM + sotorasib 0.024414 μM
[50] = Compound B 0.4374 μM + sotorasib 0.039063 μM
[51] = Compound B 0.4374 μM + sotorasib 0.0625 μM
[52] = Compound B 0.4374 μM + sotorasib 0.1 μM
[53] = Compound B 0.0384 μM + sotorasib 0.15625 μM
[54] = Compound B 0.0384 μM + sotorasib 0.3125 μM
[55] = Compound B 0.0384 μM + sotorasib 0.625 μM
[56] = Compound B 0.0384 μM + sotorasib 1.25 μM
[57] = Compound B 0.0384 μM + sotorasib 2.5 μM
[58] = Compound B 0.0384 μM + sotorasib 5 μM
[59] = Compound B 0.0384 μM + sotorasib 10 μM
[60] = Compound B 0.0808 μM + KRAS G12X inhibitor 0.010628 μM
[61] = Compound B 0.0808 μM + KRAS G12X inhibitor 0.020193 μM
[62] = Compound B 0.0808 μM + KRAS G12X inhibitor 0.038367 μM
[63] = Compound B 0.0808 μM + KRAS G12X inhibitor 0.072897 μM
[64] = Compound B 0.0808 μM + KRAS G12X inhibitor 0.138504 μM
[65] = Compound B 0.0808 μM + KRAS G12X inhibitor 0.263158 μM
[66] = Compound B 0.0808 μM + KRAS G12X inhibitor 0.5 μM

SMILES: Cc1cc2cc(C(=O)N(Cc3ccc(C(F)(F)F)cn3)[C@@H](C)c3ncccn3)ccc2nc1N [Compound B]
- Computed CI value [1, 11]: 0.675
- Combination Fa [1, 11]: 0.6193
- Computed CI value [1, 12]: 0.555
- Combination Fa [1, 12]: 0.6852
- Computed CI value [1, 13]: 0.674
- Combination Fa [1, 13]: 0.7091
- Computed CI value [1, 14]: 0.775
- Combination Fa [1, 14]: 0.5757
- Computed CI value [1, 15]: 0.557
- Combination Fa [1, 15]: 0.797
- Computed CI value [1, 16]: 0.651
- Combination Fa [1, 16]: 0.8405
- Computed CI value [1, 17]: 1.099
- Combination Fa [1, 17]: 0.8474
- Computed CI value [2, 18]: 0.627
- Combination Fa [2, 18]: 0.778
- Computed CI value [2, 19]: 0.75
- Combination Fa [2, 19]: 0.751
- Computed CI value [2, 20]: 0.594
- Combination Fa [2, 20]: 0.819
- Computed CI value [2, 21]: 0.645
- Combination Fa [2, 21]: 0.825
- Computed CI value [2, 22]: 0.674
- Combination Fa [2, 22]: 0.844
- Computed CI value [2, 23]: 0.778
- Combination Fa [2, 23]: 0.852
- Computed CI value [2, 24]: 0.813
- Combination Fa [2, 24]: 0.88
- Computed CI value [3, 25]: 0.763
- Combination Fa [3, 25]: 0.5368
- Computed CI value [3, 26]: 0.591
- Combination Fa [3, 26]: 0.6323
- Computed CI value [3, 27]: 0.578
- Combination Fa [3, 27]: 0.7018
- Computed CI value [3, 28]: 0.881
- Combination Fa [3, 28]: 0.7173
- Computed CI value [3, 29]: 0.826
- Combination Fa [3, 29]: 0.7944
- Computed CI value [3, 30]: 1.158
- Combination Fa [3, 30]: 0.8219
- Computed CI value [3, 31]: 2.512
- Combination Fa [3, 31]: 0.8073
- Computed CI value [4, 32]: 0.217
- Combination Fa [4, 32]: 0.5945
- Computed CI value [4, 33]: 0.278
- Combination Fa [4, 33]: 0.6178
- Computed CI value [4, 34]: 0.338
- Combination Fa [4, 34]: 0.6595
- Computed CI value [4, 35]: 0.509
- Combination Fa [4, 35]: 0.6756
- Computed CI value [4, 36]: 0.679
- Combination Fa [4, 36]: 0.711
- Computed CI value [4, 37]: 0.706
- Combination Fa [4, 37]: 0.7778
- Computed CI value [4, 38]: 0.59
- Combination Fa [4, 38]: 0.8539
- cell viability [5]: reduced MIAPACA2 cell viability
- Computed CI value [6, 39]: 0.569
- Combination Fa [6, 39]: 0.4457
- Computed CI value [6, 40]: 0.514
- Combination Fa [6, 40]: 0.5278
- Computed CI value [6, 41]: 0.5
- Combination Fa [6, 41]: 0.6046
- Computed CI value [6, 42]: 0.506
- Combination Fa [6, 42]: 0.6769
- Computed CI value [6, 43]: 0.452
- Combination Fa [6, 43]: 0.7607
- Computed CI value [6, 44]: 0.357
- Combination Fa [6, 44]: 0.8409
- Computed CI value [6, 45]: 0.589
- Combination Fa [6, 45]: 0.8482
- Computed CI value [7, 46]: 0.533
- Combination Fa [7, 46]: 0.678
- Computed CI value [7, 47]: 0.425
- Combination Fa [7, 47]: 0.749
- Computed CI value [7, 48]: 0.443
- Combination Fa [7, 48]: 0.781
- Computed CI value [7, 49]: 0.535
- Combination Fa [7, 49]: 0.798
- Computed CI value [7, 50]: 0.543
- Combination Fa [7, 50]: 0.838
- Computed CI value [7, 51]: 0.471
- Combination Fa [7, 51]: 0.887
- Computed CI value [7, 52]: 0.83
- Combination Fa [7, 52]: 0.875
- Computed CI value [8, 53]: 0.307
- Combination Fa [8, 53]: 0.5467
- Computed CI value [8, 54]: 0.234
- Combination Fa [8, 54]: 0.5942
- Computed CI value [8, 55]: 0.269
- Combination Fa [8, 55]: 0.5919
- Computed CI value [8, 56]: 0.273
- Combination Fa [8, 56]: 0.615
- Computed CI value [8, 57]: 0.32
- Combination Fa [8, 57]: 0.6304
- Computed CI value [8, 58]: 0.321
- Combination Fa [8, 58]: 0.6694
- Computed CI value [8, 59]: 0.669
- Combination Fa [8, 59]: 0.6476
- anti-tumor activity [9]: significant anti-tumor activity versus either single agent alone
- Computed CI value [10, 60]: 0.38
- Combination Fa [10, 60]: 0.5945
- Computed CI value [10, 61]: 0.366
- Combination Fa [10, 61]: 0.6255
- Computed CI value [10, 62]: 0.247
- Combination Fa [10, 62]: 0.7012
- Computed CI value [10, 63]: 0.284
- Combination Fa [10, 63]: 0.7187
- Computed CI value [10, 64]: 0.27
- Combination Fa [10, 64]: 0.7582
- Computed CI value [10, 65]: 0.409
- Combination Fa [10, 65]: 0.7615
- Computed CI value [10, 66]: 0.503
- Combination Fa [10, 66]: 0.7849
